Measurements reported in patent US10131652B2, “Pyrimidinyloxy benzene derivatives as herbicides” (E. I. DU PONT DE NEMOURS AND COMPANY, priority 2014, dated 2018).

How the values were obtained:
Format in all cases: in vivo
[1] = tested on: giant foxtail (Setaria faberii); assay: Test B pre-/postemergence plant response
Outline: (§1)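 Scoring used a 0–100 scale (100 = complete control) by visual comparison with untreated plants after approximately 10 days in the greenhouse. Compounds, in surfactant-containing non-phytotoxic solvent, were sprayed onto soil at planting or onto 2–10 cm seedlings.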

[2] = tested on: corn (Zea mays); assay: Test B pre-/postemergence plant response
Outline: as §1

[3] = tested on: large (Lg) crabgrass (Digitaria sanguinalis); assay: Test B pre-/postemergence plant response
Outline: as §1

[4] = tested on: pigweed (Amaranthus retroflexus); assay: Test B pre-/postemergence plant response
Outline: as §1

[5] = tested on: velvetleaf (Abutilon theophrasti); assay: Test B pre-/postemergence plant response
Outline: as §1

[6] = tested on: wheat (Triticum aestivum); assay: Test B pre-/postemergence plant response
Outline: as §1

[7] = tested on: morningglory (Ipomoea spp.); assay: Test B pre-/postemergence plant response
Outline: as §1

[8] = tested on: barnyardgrass (Echinochloa crus-galli); assay: Test B pre-/postemergence plant response
Outline: as §1

[9] = tested on: ducksalad (Heteranthera limosa); assay: Test C flooded paddy test plant response; conditions: Flood, 250 g ai/ha; scale of 0 to 100 where 0 is no effect and 100 is complete control; 13 to 15 days
Outline: (§2)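 Water-applied treatment: compounds go directly into floodwater standing 3 cm over the soil of pots holding 2-leaf-stage plants. Depth is kept constant; plants stay in a greenhouse 13 to 15 days before visual comparison with controls on a 0–100 scale.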

[10] = tested on: small-flower umbrella sedge (Cyperus difformis); assay: Test C flooded paddy test plant response; conditions: Flood, 250 g ai/ha; scale of 0 to 100 where 0 is no effect and 100 is complete control; 13 to 15 days
Outline: as §2

[11] = tested on: rice (Oryza sativa); assay: Test C flooded paddy test plant response; conditions: Flood, 250 g ai/ha; scale of 0 to 100 where 0 is no effect and 100 is complete control; 13 to 15 days
Outline: as §2

[12] = tested on: barnyardgrass (Echinochloa crus-galli); assay: Test C flooded paddy test plant response; conditions: Flood, 250 g ai/ha; scale of 0 to 100 where 0 is no effect and 100 is complete control; 13 to 15 days
Outline: as §2

[13] = 125 g ai/ha, postemergence, 0 to 100 scale, 0 no effect, 100 complete control
[14] = Postemergence, 500 g ai/ha, 0 to 100 scale (0 no effect, 100 complete control)
[15] = Preemergence, 125 g ai/ha, 0 to 100 scale where 0 is no effect and 100 is complete control
[16] = Preemergence, 500 g ai/ha, 0 to 100 scale where 0 is no effect and 100 is complete control

FC(F)(F)c1ccnc(-c2ccccc2Oc2ncc(Br)cn2)c1 [Compound 26]
20: Plant response rating, Corn [2, 14] | Plant response rating, Barnyardgrass [8, 14]
0: Plant response rating, Foxtail, Giant [1, 13] | Plant response rating, Foxtail, Giant [1, 15] | Plant response rating, Corn [2, 15] | Plant response rating, Corn [2, 16] | Plant response rating, Pigweed [4, 15] | Plant response rating, Wheat [6, 13] | Plant response rating, Wheat [6, 15] | Plant response rating, Wheat [6, 16] | Plant response rating, Morningglory [7, 15] | Plant response rating, Morningglory [7, 16] | Plant response rating, Barnyardgrass [8, 13] | Plant response rating, Barnyardgrass [8, 15] | Ducksalad plant response rating [9] | Sedge, Umbrella plant response rating [10] | Rice plant response rating [11] | Barnyardgrass plant response rating [12]
90: Plant response rating, Foxtail, Giant [1, 16]
80: Plant response rating, Pigweed [4, 14] | Plant response rating, Velvetleaf [5, 14] | Plant response rating, Velvetleaf [5, 16]
10: Plant response rating, Corn [2, 13] | Plant response rating, Crabgrass, Large [3, 13] | Plant response rating, Crabgrass, Large [3, 15] | Plant response rating, Velvetleaf [5, 13] | Plant response rating, Velvetleaf [5, 15] | Plant response rating, Wheat [6, 14] | Plant response rating, Morningglory [7, 13]
30: Plant response rating, Foxtail, Giant [1, 14] | Plant response rating, Crabgrass, Large [3, 14] | Plant response rating, Pigweed [4, 13] | Plant response rating, Barnyardgrass [8, 16]
100: Plant response rating, Crabgrass, Large [3, 16] | Plant response rating, Pigweed [4, 16]
50: Plant response rating, Morningglory [7, 14]

FC(F)(F)c1ccc(-c2ccccc2Oc2ncc(Br)cn2)nc1 [Compound 28]
60: Plant response rating, Velvetleaf [5, 16] | Plant response rating, Barnyardgrass [8, 16]
40: Plant response rating, Foxtail, Giant [1, 14] | Plant response rating, Crabgrass, Large [3, 14] | Plant response rating, Crabgrass, Large [3, 15] | Plant response rating, Pigweed [4, 15] | Plant response rating, Velvetleaf [5, 13]
0: Plant response rating, Corn [2, 13] | Plant response rating, Corn [2, 15] | Plant response rating, Corn [2, 16] | Plant response rating, Velvetleaf [5, 15] | Plant response rating, Wheat [6, 13] | Plant response rating, Wheat [6, 14] | Plant response rating, Wheat [6, 15] | Plant response rating, Wheat [6, 16] | Plant response rating, Morningglory [7, 13] | Plant response rating, Morningglory [7, 15] | Plant response rating, Morningglory [7, 16] | Plant response rating, Barnyardgrass [8, 13] | Plant response rating, Barnyardgrass [8, 15] | Ducksalad plant response rating [9] | Sedge, Umbrella plant response rating [10] | Rice plant response rating [11] | Barnyardgrass plant response rating [12]
20: Plant response rating, Foxtail, Giant [1, 13] | Plant response rating, Corn [2, 14] | Plant response rating, Crabgrass, Large [3, 13]
50: Plant response rating, Barnyardgrass [8, 14]
100: Plant response rating, Crabgrass, Large [3, 16] | Plant response rating, Pigweed [4, 14] | Plant response rating, Velvetleaf [5, 14]
80: Plant response rating, Pigweed [4, 16]
90: Plant response rating, Foxtail, Giant [1, 16]
30: Plant response rating, Foxtail, Giant [1, 15] | Plant response rating, Pigweed [4, 13] | Plant response rating, Morningglory [7, 14]

Cn1nc(C(F)(F)F)cc1-c1ccccc1Oc1ncc(Cl)cn1 [Compound 29]
10: Plant response rating, Foxtail, Giant [1, 16] | Plant response rating, Crabgrass, Large [3, 14] | Plant response rating, Crabgrass, Large [3, 15] | Plant response rating, Pigweed [4, 14]
20: Plant response rating, Pigweed [4, 15]
30: Plant response rating, Crabgrass, Large [3, 16]
50: Plant response rating, Pigweed [4, 16]
0: Plant response rating, Foxtail, Giant [1, 13] | Plant response rating, Foxtail, Giant [1, 14] | Plant response rating, Foxtail, Giant [1, 15] | Plant response rating, Corn [2, 13] | Plant response rating, Corn [2, 14] | Plant response rating, Corn [2, 15] | Plant response rating, Corn [2, 16] | Plant response rating, Crabgrass, Large [3, 13] | Plant response rating, Pigweed [4, 13] | Plant response rating, Velvetleaf [5, 13] | Plant response rating, Velvetleaf [5, 14] | Plant response rating, Velvetleaf [5, 15] | Plant response rating, Velvetleaf [5, 16] | Plant response rating, Wheat [6, 13] | Plant response rating, Wheat [6, 14] | Plant response rating, Wheat [6, 15] | Plant response rating, Wheat [6, 16] | Plant response rating, Morningglory [7, 13] | Plant response rating, Morningglory [7, 14] | Plant response rating, Morningglory [7, 15] | Plant response rating, Morningglory [7, 16] | Plant response rating, Barnyardgrass [8, 13] | Plant response rating, Barnyardgrass [8, 14] | Plant response rating, Barnyardgrass [8, 15] | Plant response rating, Barnyardgrass [8, 16] | Ducksalad plant response rating [9] | Sedge, Umbrella plant response rating [10] | Rice plant response rating [11] | Barnyardgrass plant response rating [12]
